Patent US5234944A (priority 1986, dated 1993)
Like-named read-outs stand apart in the source and are kept apart here.

Tests used:
[1] = biological target: T1, opiated receptor K (Cavia porcellus, UniProt P41144); experiment: Liaison with the opiated receptor K in vitro (displacement of 3H ethylketocyclazocine); assay type: binding; conditions: guinea-pig cerebella membranes, 3H ethylketocyclazocine 1 nM, Tris pH 7.7, 25° C., 40 minutes
T1 construct: Membrane residue prepared from the cerebella of guinea-pigs; from tissue; host or cells: guinea-pig cerebellum membranes
T1 sequence (P41144 whole entry): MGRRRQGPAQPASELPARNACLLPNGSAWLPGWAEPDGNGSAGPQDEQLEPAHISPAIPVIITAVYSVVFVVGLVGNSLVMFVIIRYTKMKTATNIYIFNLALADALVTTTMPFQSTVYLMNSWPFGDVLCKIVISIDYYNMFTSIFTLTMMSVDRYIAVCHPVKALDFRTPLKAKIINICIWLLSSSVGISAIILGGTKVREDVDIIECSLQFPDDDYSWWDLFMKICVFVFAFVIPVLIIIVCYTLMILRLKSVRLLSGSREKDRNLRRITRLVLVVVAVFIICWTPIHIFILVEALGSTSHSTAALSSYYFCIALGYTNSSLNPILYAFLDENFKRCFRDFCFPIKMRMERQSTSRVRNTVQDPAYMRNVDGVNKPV

[2] = Hypotensive activity on the anaesthetized rat; assay type: in vivo, rat (Sprague Dawley); conditions: injected into jugular vein
[3] = assay type: in vivo, rat; conditions: intravenous, aconitine 5 minutes after
[4] = Measurement of the diuretic activity; assay type: in vivo, rat (Sprague Dawley); conditions: oral, t1h-t5h
Experimental: 4) Measurement of the diuretic activity
Male rats of Sprague Dawley strain weighing 180 to 200 g were not fed for 17 hours before the test, but received water ad libitum. Groups of 8 animals were set up for each dose tested and the rats received the product under test or its vehicle orally. The urinary volume was measured every hour for the 5 hours following the administration of the product. At the end of this period, the urines were collected and the activity of the product was expressed as a percentage of variation calculated on the urinary volume corresponding to the period t1h -t5h.

[5] = read-out: 50% inhibiting concentration (IC50)
[6] = 50% inhibiting concentration (IC50)

Compound	IC50 [1, 6] [nM]	variation of arterial pressure, 5 min. after administration ([2]; dose 1 mg/kg) [%]	variation of arterial pressure, 30 min. after administration ([2]; dose 1 mg/kg) [%]	other results
CC(C(=O)N(C)[C@@H]1c2ccccc2C[C@H]1N1CCCC1)c1ccc(Cl)c(Cl)c1 (mixture of isomers) [Example 22, [Trans (±)]3,4-dichloro-N-[2,3-dihydro-2-(1-pyrrolidinyl)-1H-inden-1-yl]-N-α-dimethyl-benzene-acetamide]				IC50 [1, 5]: 7.1 nM
CN(C(=O)Cc1ccc(Cl)c(Cl)c1)[C@H]1[C@H](N2CCCC2)c2ccccc2C12CCOCC2 (relative stereo) [Example 4, [trans (±)]3,4-dichloro-N-[2,2',3,3',5',6'-hexahydro-3-(1-pyrrolidinyl)-spiro (1H-inden-1-,4'-(4H)-pyran]-2-yl]-N-methyl-benzene-acetamide]				variation of arterial pressure, 5 min. after administration ([2]; dose 10 mg/kg): -26%; variation of arterial pressure, 30 min. after administration ([2]; dose 10 mg/kg): -14%
CN(C(=O)Cc1ccc(C(F)(F)F)cc1)[C@@H]1c2ccccc2C[C@H]1N1CCCC1 (relative stereo) [Example 5, [Trans (±)]N-[2,3-dihydro-2-(1-pyrrolidinyl)-1H-inden-1-yl]-N-methyl 4-(trifluoromethyl)-benzene-acetamide]	3	-20	-20	variation of arterial pressure, 5 min. after administration ([2]; dose 10 mg/kg): -25%; variation of arterial pressure, 30 min. after administration ([2]; dose 10 mg/kg): -10%; percentage of extension of time of appearance of disturbances of the cardiac rhythm ([3]; dose 10 mg/kg): +15.6%
CN(C(=O)Cc1cccc(C(F)(F)F)c1)[C@@H]1c2ccccc2C[C@H]1N1CCCC1 (relative stereo) [Example 6, [Trans (±)]N-[2,3-dihydro-2-(1-pyrrolidinyl)-1H-inden-1-yl]-N-methyl-3-(trifluoromethyl)-benzene-acetamide]	7.5			
CN(C(=O)Cc1ccc([N+](=O)[O-])cc1)[C@@H]1c2ccccc2C[C@H]1N1CCCC1 (relative stereo) [Example 8, [Trans (±)]N-[2,3-dihydro-2-(1-pyrrolidinyl)-1H-inden-1-yl]-N-methyl-4-nitro-benzene-acetamide]	7.1	-25	-27	percentage of variation of the urinary volume ([4]; dose 2.5 mg/kg): +124%; percentage of variation of the urinary volume ([4]; dose 5 mg/kg): +130%; percentage of extension of time of appearance of disturbances of the cardiac rhythm ([3]; dose 5 mg/kg): +23%
CN(C(=O)COc1ccc(Cl)c(Cl)c1)[C@@H]1c2ccccc2C[C@H]1N1CCCC1 (relative stereo) [Example 14, [trans (±)]2-(3,4-dichlorophenoxy)-N-[2,3-dihydro-2-(1-pyrrolidinyl)-1H-inden-1-yl]-N-methyl-acetamide]		-22	-26	IC50 [1, 5]: 3.8 nM; percentage of variation of the urinary volume ([4]; dose 5 mg/kg): +68%
CN(C(=O)Cc1ccc([N+](=O)[O-])cc1)[C@@H]1c2ccccc2C[C@H]1N1CCCC1 (relative stereo) [Example 16, [Trans (±)]N-[2,3-dihydro-2-(1-pyrrolidinyl)-1H-inden-1-yl]-N-methyl-4-nitro-benzene-acetamide (isomer A)]	5			
CN(C)[C@@H]1Cc2ccccc2[C@H]1N(C)C(=O)Cc1ccc(Cl)c(Cl)c1 (relative stereo) [Example 25, [Trans (±)]3,4-dichloro-N-[2,3-dihydro-2-(dimethylamino)-1H-inden-1-yl]-N-methyl-benzene-acetamide]	2.2			
CN(C(=O)Cc1ccc(Cl)c(Cl)c1)[C@H]1[C@H](N2CCCC2)c2ccccc2C1(C)C (relative stereo) [Example 29, [Trans (±)]3,4-dichloro-N-[2,3-dihydro-1,1-dimethyl-3-(1-pyrrolidinyl)-1H-inden-2-yl]-N-methyl-benzene-acetamide]	5.6			
